These molecules were tested on RS4;11 cells (assay: Cell viability assay (CellTiter-Glo) in RS4;11 cells). Conditions: Homo sapiens, 72 h; RS4;11 cells; cell viability, 3 days, CellTiter-Glo; read-out: IC50.
Format: cell-based
How it was run: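 RS4;11 cells seeded at 5000 per well, exposed for 3 days to 8- or 12-point 3-fold serial dilutions. Viability read by CellTiter-Glo luminescence; IC50 fitted by nonlinear least-squares regression.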

With `Cc1ncsc1-c1ccc(CNC(=O)[C@@H]2C[C@@H](O)CN2C(=O)[C@@H](NC(=O)CCCCCCNC(=O)CN2CCC(n3cc(-c4cnc5cccc(-c6cc(F)c(CN7CCOCC7)c(F)c6)c5n4)cn3)CC2)C(C)(C)C)cc1` [JA-165, (2S,4R)-1-((S)-2-(7-(2-(4-(4-(8-(3,5-Difluoro-4-(morpholinomethyl)phenyl)quinoxalin-2-yl)-1H-pyrazol-1-yl)piperidin-1-yl)acetamido)heptanamido)-3,3-dimethylbutanoyl)-4-hydroxy-N-(4-(4-methylthiazol-5-yl)benzyl)pyrrolidine-2-carboxamide] as the molecule, how does the IC50 read?
Its IC50 is > 10000 nM.

How did the IC50 turn out when `Cc1ncsc1-c1ccc(CNC(=O)[C@@H]2C[C@@H](O)CN2C(=O)[C@@H](NC(=O)CCCCCCCCCNC(=O)CN2CCC(n3cc(-c4cnc5cccc(-c6cc(F)c(CN7CCOCC7)c(F)c6)c5n4)cn3)CC2)C(C)(C)C)cc1` [JA-166, (2S,4R)-1-((S)-2-(10-(2-(4-(4-(8-(3,5-Difluoro-4-(morpholinomethyl)phenyl)quinoxalin-2-yl)-1H-pyrazol-1-yl)piperidin-1-yl)acetamido)decanamido)-3,3-dimethylbutanoyl)-4-hydroxy-N-(4-(4-methylthiazol-5-yl)benzyl)pyrrolidine-2-carboxamide] was run?
The IC50 was 4450 nM.

`Cc1ncsc1-c1ccc(CNC(=O)[C@@H]2C[C@@H](O)CN2C(=O)[C@@H](NC(=O)CCOCCOCCOCCOCCNC(=O)CN2CCC(n3cc(-c4cnc5cccc(-c6cc(F)c(CN7CCOCC7)c(F)c6)c5n4)cn3)CC2)C(C)(C)C)cc1` [JA-167, (2S,4R)-1-((S)-20-(tert-Butyl)-1-(4-(4-(8-(3,5-difluoro-4-(morpholinomethyl)phenyl)quinoxalin-2-yl)-1H-pyrazol-1-yl)piperidin-1-yl)-2,18-dioxo-6,9,12,15-tetraoxa-3,19-diazahenicosan-21-oyl)-4-hydroxy-N-(4-(4-methylthiazol-5-yl)benzyl)pyrrolidine-2-carboxamide] was tested. Which IC50 did it give?
Its IC50 is > 10000 nM.

Which IC50 does the source give for `Cc1ncsc1-c1ccc(CNC(=O)[C@@H]2C[C@@H](O)CN2C(=O)[C@@H](NC(=O)CCCCNC(=O)CN2CCC(n3cc(-c4cnc5cccc(-c6cc(F)c(CN7CCOCC7)c(F)c6)c5n4)cn3)CC2)C(C)(C)C)cc1` [JA-168, (2S,4R)-1-((S)-2-(5-(2-(4-(4-(8-(3,5-Difluoro-4-(morpholinomethyl)phenyl)quinoxalin-2-yl)-1H-pyrazol-1-yl)piperidin-1-yl)acetamido)pentanamido)-3,3-dimethylbutanoyl)-4-hydroxy-N-(4-(4-methylthiazol-5-yl)benzyl)pyrrolidine-2-carboxamide] here?
The IC50 was > 10000 nM.

`O=C(CN1CCC(n2cc(-c3cnc4cccc(-c5cc(F)c(CN6CCOCC6)c(F)c5)c4n3)cn2)CC1)NCCOCCNc1ccc2c(c1)C(=O)N(C1CCC(=O)NC1=O)C2=O` (stereo not shown) [JA-169, 2-(4-(4-(8-(3,5-Difluoro-4-(morpholinomethyl)phenyl)quinoxalin-2-yl)-1H-pyrazol-1-yl)piperidin-1-yl)-N-(2-(2-((2-(2,6-dioxopiperidin-3-yl)-1,3-dioxoisoindolin-5-yl)amino)ethoxy)ethyl)acetamide] was tested. Which IC50 did it give?
Its IC50 is 2030 nM.

For `O=C(CN1CCC(n2cc(-c3cnc4cccc(-c5cc(F)c(CN6CCOCC6)c(F)c5)c4n3)cn2)CC1)NCCOCCOCCNc1ccc2c(c1)C(=O)N(C1CCC(=O)NC1=O)C2=O` (stereo not shown) [JA-170, 2-(4-(4-(8-(3,5-Difluoro-4-(morpholinomethyl)phenyl)quinoxalin-2-yl)-1H-pyrazol-1-yl)piperidin-1-yl)-N-(2-(2-(2-((2-(2,6-dioxopiperidin-3-yl)-1,3-dioxoisoindolin-5-yl)amino)ethoxy)ethoxy)ethyl)acetamide], which IC50 is on record?
The IC50 was > 10000 nM.

Which IC50 does the source give for `O=C(CN1CCC(n2cc(-c3cnc4cccc(-c5cc(F)c(CN6CCOCC6)c(F)c5)c4n3)cn2)CC1)NCCOCCOCCOCCNc1ccc2c(c1)C(=O)N(C1CCC(=O)NC1=O)C2=O` (stereo not shown) [JA-171, 2-(4-(4-(8-(3,5-Difluoro-4-(morpholinomethyl)phenyl)quinoxalin-2-yl)-1H-pyrazol-1-yl)piperidin-1-yl)-N-(2-(2-(2-(2-((2-(2,6-dioxopiperidin-3-yl)-1,3-dioxoisoindolin-5-yl)amino)ethoxy)ethoxy)ethoxy)ethyl)acetamide] here?
Its IC50 is > 10000 nM.

With `O=C(CN1CCC(n2cc(-c3cnc4cccc(-c5cc(F)c(CN6CCOCC6)c(F)c5)c4n3)cn2)CC1)NCCOCCOCCOCCOCCNc1ccc2c(c1)C(=O)N(C1CCC(=O)NC1=O)C2=O` (stereo not shown) [JA-172, 2-(4-(4-(8-(3,5-Difluoro-4-(morpholinomethyl)phenyl)quinoxalin-2-yl)-1H-pyrazol-1-yl)piperidin-1-yl)-N-(14-((2-(2,6-dioxopiperidin-3-yl)-1,3-dioxoisoindolin-5-yl)amino)-3,6,9,12-tetraoxatetradecyl)acetamide] as the molecule, how does the IC50 read?
Its IC50 is > 10000 nM.

How did the IC50 turn out when `O=C(CN1CCC(n2cc(-c3cnc4cccc(-c5cc(F)c(CN6CCOCC6)c(F)c5)c4n3)cn2)CC1)NCCOCCOCCOCCOCCOCCNc1ccc2c(c1)C(=O)N(C1CCC(=O)NC1=O)C2=O` (stereo not shown) [JA-173, 2-(4-(4-(8-(3,5-Difluoro-4-(morpholinomethyl)phenyl)quinoxalin-2-yl)-1H-pyrazol-1-yl)piperidin-1-yl)-N-(17-((2-(2,6-dioxopiperidin-3-yl)-1,3-dioxoisoindolin-5-yl)amino)-3,6,9,12,15-pentaoxaheptadecyl)acetamide] was run?
The IC50 was > 10000 nM.

Which IC50 does the source give for `O=C(CN1CCC(n2cc(-c3cnc4cccc(-c5cc(F)c(CN6CCOCC6)c(F)c5)c4n3)cn2)CC1)NCCNc1ccc2c(c1)C(=O)N(C1CCC(=O)NC1=O)C2=O` (stereo not shown) [JA-174, 2-(4-(4-(8-(3,5-Difluoro-4-(morpholinomethyl)phenyl)quinoxalin-2-yl)-1H-pyrazol-1-yl)piperidin-1-yl)-N-(2-((2-(2,6-dioxopiperidin-3-yl)-1,3-dioxoisoindolin-5-yl)amino)ethyl)acetamide] here?
The IC50 was 2450 nM.

How did the IC50 turn out when `O=C(CN1CCC(n2cc(-c3cnc4cccc(-c5cc(F)c(CN6CCOCC6)c(F)c5)c4n3)cn2)CC1)NCCCNc1ccc2c(c1)C(=O)N(C1CCC(=O)NC1=O)C2=O` (stereo not shown) [JA-175, 2-(4-(4-(8-(3,5-Difluoro-4-(morpholinomethyl)phenyl)quinoxalin-2-yl)-1H-pyrazol-1-yl)piperidin-1-yl)-N-(3-((2-(2,6-dioxopiperidin-3-yl)-1,3-dioxoisoindolin-5-yl)amino)propyl)acetamide] was run?
Its IC50 is 128 nM.

Which IC50 does the source give for `O=C(CN1CCC(n2cc(-c3cnc4cccc(-c5cc(F)c(CN6CCOCC6)c(F)c5)c4n3)cn2)CC1)NCCCCNc1ccc2c(c1)C(=O)N(C1CCC(=O)NC1=O)C2=O` (stereo not shown) [JA-176, 2-(4-(4-(8-(3,5-Difluoro-4-(morpholinomethyl)phenyl)quinoxalin-2-yl)-1H-pyrazol-1-yl)piperidin-1-yl)-N-(4-((2-(2,6-dioxopiperidin-3-yl)-1,3-dioxoisoindolin-5-yl)amino)butyl)acetamide] here?
Its IC50 is 2790 nM.

Which IC50 does the source give for `O=C(CN1CCC(n2cc(-c3cnc4cccc(-c5cc(F)c(CN6CCOCC6)c(F)c5)c4n3)cn2)CC1)NCCCCCNc1ccc2c(c1)C(=O)N(C1CCC(=O)NC1=O)C2=O` (stereo not shown) [JA-177, 2-(4-(4-(8-(3,5-Difluoro-4-(morpholinomethyl)phenyl)quinoxalin-2-yl)-1H-pyrazol-1-yl)piperidin-1-yl)-N-(5-((2-(2,6-dioxopiperidin-3-yl)-1,3-dioxoisoindolin-5-yl)amino)pentyl)acetamide] here?
Its IC50 is 890 nM.

Source: patent publication US20230093099A1, “COMPOUNDS AND METHODS OF TREATING CANCERS” (CULLGEN (SHANGHAI), INC., priority 2019, published 2023)
